What was measured:
Type in all cases: cell-based
[1] = tested on: high HER2 tumor cell line SK-BR-3; assay: Effect of small molecules on SK-BR-3 cell proliferation (CellTiter-Glo); conditions: SK-BR-3, 120 h incubation, relative biological activity with Dxd as control sample
Method: Study Purpose: In this experiment, cell viability was detected using CellTiter-Glo to evaluate the effects of the small molecule compounds on the proliferation of a high HER2 tumor cell line SK-BR-3, and to analyze the effects of the small molecule compounds on the proliferation of tumor cells.
• (1) Microscopic examination of cells • (2) Digestion: digested using 2 mL 0.25% trypsin for 3 minutes; • (3) Centrifuge: 1000 rpm for 5 min; • (4) Cell counting • A. Cell dilution: • B. Cell plating: in 100 μl/well • C. Incubation: 37° C., 5% CO2, overnight
• (1) Microscopic examination • (2) Drug preparation: • A. Preparation of Buffer for preparation of samples: the desired amount of Buffer for preparation of samples was prepared using the culture medium (10% FBS) for the testing cells; • B. Sample preparation: the sample was diluted from the first concentration to the desired concentration in a 96-well deep-well Plate.
Positive control Puromycin: A stock solution of 2.5 mg/ml was used, and diluted with the cell medium. A dilution of 250-fold was preformed, and then a dilution of 2-fold was preformed when applying the compounds to reach the testing concentration 5 μg/ml for puromycin. • (3) Application of the compounds: for each concentration of the diluted series, the compound was applied in triplicate. In 100 μl/well. • (4) After the drug was added, the cells were incubated in the incubator for 120 h.
• (1) Preparation of detection reagents: CellTiter-Glo Luminescent Cell Viability Assay detection reagent was allowed to warm to room temperature with protection from light • (2) Cell preparation: The cells to be tested were taken out from the incubator and equilibrated at room temperature (25° C.) 30 min. • (3) ATP detection: Discard the culture medium and 100 μl/well DMEM was added, 50 μl/hole CTG was added into 96-well plate, protected from light using aluminum foil and oscillated using a vortex oscillator at room temperature of 200 rpm for 10 min. • (4) Detection procedure: After setting up the procedure, the black-wall clear-bottom plate was placed in the instrument without its cover. • (5) Data acquisition.
GraphPad software was used to process the data. […] If necessary, the relative biological activity of sample A, i.e., ratio activity was calculated. Dxd was used as the control sample for the ratio activity calculation.
Cell proliferation inhibition rate (%)=([…])/(luminescence value of blank control group−luminescence value of puro group)×100; wherein the puro group refers to the group treated with puromycin
R^2 Value ≥0.950; CV % between parallel pores ≤30%.

[2] = tested on: NCI-N87 HER2-high cell line; assay: Effect of HER2-targeting conjugates on cell proliferation (CellTiter-Glo), NCI-N87; conditions: NCI-N87, 120 h
Method: (§1) Study Purpose: Cell viability was detected by CellTiter-Glo assay to evaluate the effects of the ADCs on the proliferation of two high HER2 tumor cell lines SK-BR-3, NCI-N87 and a HER2-negative tumor cell line MDA-MB-468, and to analyze the effects of the ADCs on the proliferation of tumor cells.
(§2) Positive control Puromycin: A stock solution of 10 mg/ml was used, and diluted with the cell medium. A dilution of 100-fold was preformed, and then a dilution of 10-fold was preformed when applying the compounds to reach the testing concentration 5 μg/ml for puromycin. • (4) Application of the compounds: for each concentration of the diluted series, the compound was applied in triplicate. […]

[3] = tested on: SK-BR-3 HER2-high cell line; assay: Effect of HER2-targeting conjugates on cell proliferation (CellTiter-Glo), SK-BR-3; conditions: SK-BR-3, 120 h
Method: as §1, §2

| Compound | Ratio activity (%) [1] [%] | IC50 [2] [nM] | IC50 [3] [nM] |
| --- | --- | --- | --- |
| CC[C@@]1(O)C(=O)OCc2c1cc1n(c2=O)Cc2c-1nc1cc(F)c(Cl)c3c1c2[C@@H](NC(=O)CCCO)CC3 [C679] | 0.49 | – | – |
| CC[C@@]1(O)C(=O)OCc2c1cc1n(c2=O)Cc2c-1nc1cc(F)c(Br)c3c1c2[C@H](NC(=O)C[C@@H](C)O)CC3 [C602] | 0.29 | – | – |
| CC[C@@]1(O)C(=O)OCc2c1cc1n(c2=O)Cc2c-1nc1cc(F)c(Cl)c3c1c2[C@@H](NC(=O)[C@H](O)C(F)(F)F)CC3 [C626] | 0.54 | – | – |
| CC[C@@]1(O)C(=O)OCc2c1cc1n(c2=O)Cc2c-1nc1cc(F)c(Cl)c3c1c2[C@H](N)CC3 [C731] | 0.82 | – | – |
| CC[C@@]1(O)C(=O)OCc2c1cc1n(c2=O)Cc2c-1nc1cc(F)c(C)c3c1c2[C@@H](NC(=O)CO)CC3 [Dxd] | 1 | 4.68 | 1.47 |
| CC[C@@]1(O)C(=O)OCc2c1cc1n(c2=O)Cc2c-1nc1cc(F)c(Br)c3c1c2[C@H](NC(=O)C[C@H](C)O)CC3 [C600] | 0.62 | – | – |
